In ChEMBL document CHEMBL5230104, “Systemic review on B-RafV600E mutation as potential therapeutic target for the treatment of cancer” (Eur J Med Chem, 2020):

What was measured:
WM 266-4 [1] = experiment: Antiproliferative activity against human WM266-4 cells incubated for 48 hrs by MTT based colorimetric method; assay type: functional, cell-based; details: WM 266-4, 48 h
[2] = Inhibition of full length GST tagged mouse B-Raf V600E mutant preincubated for 1 hr and measured after 25 mins in presence of ATP
[3] = molecular target: Serine/threonine-protein kinase B-raf (Mus musculus, UniProt P28028); experiment: Inhibition of full length GST tagged mouse wild type B-Raf preincubated for 1 hr and measured after 25 mins in presence of ATP
Sequence of Serine/threonine-protein kinase B-raf (Mus musculus, UniProt P28028) (P28028 whole entry): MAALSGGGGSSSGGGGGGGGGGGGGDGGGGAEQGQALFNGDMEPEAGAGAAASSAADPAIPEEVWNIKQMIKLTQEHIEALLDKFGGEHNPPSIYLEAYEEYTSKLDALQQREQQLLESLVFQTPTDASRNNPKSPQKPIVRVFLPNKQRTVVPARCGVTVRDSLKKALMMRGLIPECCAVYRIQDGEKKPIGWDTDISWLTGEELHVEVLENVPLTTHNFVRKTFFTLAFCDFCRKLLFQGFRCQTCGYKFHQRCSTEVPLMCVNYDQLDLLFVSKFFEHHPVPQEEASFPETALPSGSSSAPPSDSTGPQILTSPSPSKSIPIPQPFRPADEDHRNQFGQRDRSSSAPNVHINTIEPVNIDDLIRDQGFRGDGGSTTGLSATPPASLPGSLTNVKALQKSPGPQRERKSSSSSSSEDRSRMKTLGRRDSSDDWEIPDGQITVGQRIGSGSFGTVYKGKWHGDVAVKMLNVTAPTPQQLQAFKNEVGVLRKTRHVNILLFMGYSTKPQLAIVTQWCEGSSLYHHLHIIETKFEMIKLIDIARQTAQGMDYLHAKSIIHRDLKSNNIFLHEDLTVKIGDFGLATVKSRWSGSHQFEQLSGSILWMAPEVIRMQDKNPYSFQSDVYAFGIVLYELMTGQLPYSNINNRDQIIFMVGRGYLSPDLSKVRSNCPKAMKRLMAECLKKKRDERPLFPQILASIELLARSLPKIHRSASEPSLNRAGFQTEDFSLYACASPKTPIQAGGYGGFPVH

A-375 [4] = experiment: Antiproliferative activity against human A-375 cells incubated for 48 hrs by MTT based colorimetric method; assay type: functional, cell-based; details: A-375, 48 h
[5] = molecular target: T1, Serine/threonine-protein kinase B-raf (Homo sapiens, UniProt P15056); experiment: Inhibition of B-Raf (unknown origin)
T1 sequence (P15056 whole entry): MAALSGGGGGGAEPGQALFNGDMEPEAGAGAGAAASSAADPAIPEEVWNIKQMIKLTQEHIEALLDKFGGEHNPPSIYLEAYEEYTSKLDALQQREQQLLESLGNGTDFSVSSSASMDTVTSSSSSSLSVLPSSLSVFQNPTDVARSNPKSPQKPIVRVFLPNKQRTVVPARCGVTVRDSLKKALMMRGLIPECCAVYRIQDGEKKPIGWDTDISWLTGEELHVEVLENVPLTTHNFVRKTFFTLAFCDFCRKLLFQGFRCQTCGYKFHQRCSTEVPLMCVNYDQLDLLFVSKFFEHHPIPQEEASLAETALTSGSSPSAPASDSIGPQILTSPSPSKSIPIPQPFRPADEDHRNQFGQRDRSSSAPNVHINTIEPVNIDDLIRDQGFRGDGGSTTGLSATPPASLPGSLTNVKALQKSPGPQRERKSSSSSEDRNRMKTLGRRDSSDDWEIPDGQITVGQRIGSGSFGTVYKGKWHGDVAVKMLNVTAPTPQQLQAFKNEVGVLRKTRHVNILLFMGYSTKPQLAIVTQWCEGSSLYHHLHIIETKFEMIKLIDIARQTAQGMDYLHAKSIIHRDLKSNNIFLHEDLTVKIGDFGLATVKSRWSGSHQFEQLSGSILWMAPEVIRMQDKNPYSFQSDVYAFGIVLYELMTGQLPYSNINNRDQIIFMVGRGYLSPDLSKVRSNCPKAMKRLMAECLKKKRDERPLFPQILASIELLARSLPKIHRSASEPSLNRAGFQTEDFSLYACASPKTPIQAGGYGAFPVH

HT-29 [6] = experiment: Antiproliferative activity against human HT-29 cells assessed as cell growth proliferation; assay type: functional, cell-based
MDA-MB-468 = experiment: Anticancer activity against human MDA-MB-468 cells assessed as cell growth proliferation; assay type: functional, cell-based
UO-31 = experiment: Anticancer activity against human UO-31 cells assessed as cell growth proliferation; assay type: functional, cell-based
A-375 [7] = experiment: Anticancer activity against human A-375 cells assessed as cell growth proliferation; assay type: functional, cell-based
SNB-75 = experiment: Anticancer activity against human SNB-75 cells assessed as cell growth proliferation; assay type: functional, cell-based
PC-3 = experiment: Anticancer activity against human PC-3 cells assessed as cell growth proliferation; assay type: functional, cell-based
HT-29 [8] = experiment: Anticancer activity against human HT-29 cells assessed as cell growth proliferation; assay type: functional, cell-based
SK-MEL-5 [9] = experiment: Anticancer activity against human SK-MEL-5 cells assessed as cell growth proliferation; assay type: functional, cell-based
OVCAR-3 = experiment: Anticancer activity against human OVCAR-3 cells assessed as cell growth proliferation; assay type: functional, cell-based
HOP-92 = experiment: Anticancer activity against human HOP-92 cells assessed as cell growth proliferation; assay type: functional, cell-based
NCI-H522 = experiment: Anticancer activity against human NCI-H522 cells assessed as cell growth proliferation; assay type: functional, cell-based
[10] = tested on: Serine/threonine-protein kinase B-raf (Homo sapiens), P15056 [V600E]; experiment: Inhibition of B-Raf V600E mutant (unknown origin) at 10 uM relative to control
Sequence of Serine/threonine-protein kinase B-raf (Homo sapiens), P15056 [V600E] (P15056 whole entry V600E): as the sequence (P15056 whole entry) above, with V600E counted along it

SR = experiment: Anticancer activity against human SR cells assessed as cell growth proliferation; assay type: functional, cell-based
SW-620 = experiment: Anticancer activity against human SW620 cells assessed as cell growth proliferation; assay type: functional, cell-based
[11] = Inhibition of full length GST tagged mouse B-Raf V600E mutant measured after 25 mins by ELISA method
WM 266-4 [12] = experiment: Antiproliferative activity against human WM266-4 cells incubated for 24 hrs by MTT assay; assay type: functional, cell-based; details: WM 266-4, 24 h
[13] = molecular target: T1, Serine/threonine-protein kinase B-raf; experiment: Inhibition of wild type B-Raf (unknown origin)
SK-MEL-5 [14] = experiment: Antiproliferative activity against human SK-MEL-5 cells; assay type: functional, cell-based
[15] = molecular target: T2, Serine/threonine-protein kinase B-raf (Homo sapiens, UniProt P15056, V600E); experiment: (§1) Inhibition of B-Raf V600E mutant (unknown origin)
Target sequence in this assay (P15056 whole entry V600E): as the sequence (P15056 whole entry) above, with V600E counted along it

[16] = tested on: Serine/threonine-protein kinase B-raf (Homo sapiens), P15056 [V600E]; experiment: as §1
HUVEC = experiment: Cytotoxicity against HUVEC cells; assay type: functional, cell-based; details: Homo sapiens
A-375 [17] = experiment: Antitumor activity against human A-375 cells xenografted in mouse model assessed as tumor growth inhibition at 50 mg/kg relative to control; assay type: functional; set-up: scale not given: the % may be the effect or the level left
A-375 [18] = experiment: Cytotoxicity against human A-375 cells; assay type: functional, cell-based
RKO = experiment: Antiproliferative activity against human RKO cells incubated for 72 hrs by celltiter glo assay; assay type: functional, cell-based
WM-115 = experiment: Antiproliferative activity against human WM-115 cells incubated for 72 hrs by celltiter glo assay; assay type: functional, cell-based; details: WM-115, 72 h
SW1417 = experiment: Antiproliferative activity against human SW1417 cells incubated for 72 hrs by celltiter glo assay; assay type: functional, cell-based; details: SW1417, 72 h
A-375 [19] = experiment: Antiproliferative activity against human A-375 cells incubated for 72 hrs by celltiter glo assay; assay type: functional, cell-based; details: A-375, 72 h
COLO 205 [20] = experiment: Antiproliferative activity against human COLO 205 cells incubated for 72 hrs by celltiter glo assay; assay type: functional, cell-based; details: COLO 205, 72 h
A-375 [21] = experiment: Antiproliferative activity against human A-375 cells; assay type: functional, cell-based
COLO 205 [22] = experiment: Antiproliferative activity against human COLO 205 cells assessed as inhibition of cell growth incubated for 72 hrs by MTT assay; assay type: functional, cell-based; details: COLO 205, 72 h
[23] = molecular target: T2, Serine/threonine-protein kinase B-raf; experiment: Inhibition of B-Raf V600E mutant (unknown origin) by ELISA based assay
Target sequence in this assay (P15056 2-766 V600E limits assumed): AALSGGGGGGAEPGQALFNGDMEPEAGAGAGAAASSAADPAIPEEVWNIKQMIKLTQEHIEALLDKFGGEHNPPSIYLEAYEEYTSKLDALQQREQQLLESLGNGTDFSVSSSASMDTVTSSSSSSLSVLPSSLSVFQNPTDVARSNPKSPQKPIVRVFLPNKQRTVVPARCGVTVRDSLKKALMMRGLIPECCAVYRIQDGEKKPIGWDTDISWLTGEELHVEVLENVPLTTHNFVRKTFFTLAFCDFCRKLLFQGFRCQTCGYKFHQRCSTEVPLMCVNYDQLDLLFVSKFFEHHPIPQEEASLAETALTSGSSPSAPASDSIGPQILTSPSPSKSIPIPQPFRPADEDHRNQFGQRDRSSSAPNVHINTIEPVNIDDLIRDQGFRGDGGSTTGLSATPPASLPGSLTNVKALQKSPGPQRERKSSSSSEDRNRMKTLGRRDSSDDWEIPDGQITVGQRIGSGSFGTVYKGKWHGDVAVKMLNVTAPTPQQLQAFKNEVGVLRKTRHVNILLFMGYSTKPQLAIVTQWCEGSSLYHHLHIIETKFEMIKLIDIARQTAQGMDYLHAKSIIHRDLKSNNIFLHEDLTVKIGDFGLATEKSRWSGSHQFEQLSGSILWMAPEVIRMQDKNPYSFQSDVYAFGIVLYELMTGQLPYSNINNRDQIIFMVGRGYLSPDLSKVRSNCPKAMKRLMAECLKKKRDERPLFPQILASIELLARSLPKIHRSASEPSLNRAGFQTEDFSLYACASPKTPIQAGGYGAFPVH

A-375 [24] = experiment: Antiproliferative activity against human A-375 cells assessed as inhibition of cell growth incubated for 72 hrs by MTT assay; assay type: functional, cell-based; details: A-375, 72 h
[25] = molecular target: T1, Serine/threonine-protein kinase B-raf; experiment: Inhibition of wild type B-Raf (unknown origin) by ELISA based assay
HT-29 [26] = experiment: Antiproliferative activity against human HT-29 cells assessed as inhibition of cell growth incubated for 72 hrs by MTT assay; assay type: functional, cell-based; details: HT-29, 72 h
[27] = Inhibition of full length GST tagged mouse B-Raf V600E mutant incubated for 1 hr
HepG2 = experiment: Antiproliferative activity against human HepG2 cells; assay type: functional, cell-based
SW480 = experiment: Antiproliferative activity against human SW480 cells; assay type: functional, cell-based
MDA-MB-453 = experiment: Antiproliferative activity against human MDA-MB-453 cells; assay type: functional, cell-based
SK-OV-3 [28] = experiment: Antitumor activity against human SK-OV-3 cells xenografted in mouse model assessed as reduction in tumor growth measured after 40 days relative to control; assay type: functional; set-up: scale not given: the % may be the effect or the level left; details: time 40 day
SK-OV-3 [29] = experiment: Antiproliferative activity against human SK-OV-3 cells; assay type: functional, cell-based
[30] = molecular target: T1, Serine/threonine-protein kinase B-raf; experiment: Inhibition of wild type B-Raf (unknown origin) incubated for 1 hr by ELISA based luminescence assay
[31] = molecular target: T2, Serine/threonine-protein kinase B-raf; experiment: Inhibition of B-Raf V600E mutant (unknown origin) incubated for 1 hr by ELISA based luminescence assay
Target sequence in this assay (P15056 2-766 V600E limits assumed): as above

COc1ccc(-n2cc(Nc3cccc4[nH]ncc34)cn2)cc1
IC50 (WM 266-4 [1]): 380 nM
IC50 [2]: 40 nM
IC50 [3]: 770 nM
IC50 (A-375 [4]): 340 nM

COc1ccc(-c2n[nH]c(/N=C/c3ccc(O)c(OC)c3)n2)cc1
IC50 [5]: 700 nM
IC50 (HT-29 [6]): 1300 nM

CCN1CCN(CCC(=O)Nc2cccc(-n3cc(-c4ccncc4)c(-c4ccc(Cl)c(OC)c4)n3)c2)CC1
IC50 (MDA-MB-468): 270 nM
IC50 (UO-31): 920 nM
IC50 (A-375 [7]): 820 nM
IC50 (SNB-75): 390 nM
IC50 (PC-3): 450 nM
IC50 (HT-29 [8]): 380 nM
IC50 (SK-MEL-5 [9]): 510 nM
IC50 (OVCAR-3): 350 nM
IC50 (HOP-92): 780 nM
IC50 (NCI-H522): 270 nM
inhibition [10]: 100%
IC50 (SR): 430 nM
IC50 (SW-620): 340 nM

Oc1ccccc1C1CC(c2ccc(Cl)c(Cl)c2)=NN1c1ccccc1 (stereo not drawn)
IC50 [11]: 150 nM
IC50 (WM 266-4 [12]): 1750 nM

O=S(=O)(NCCCNc1cc(-c2cn(-c3ccccc3)nc2-c2cccc(O)c2)ccn1)c1ccc(Cl)cc1
IC50 [13]: 4870 nM
IC50 (SK-MEL-5 [14]): 1270 nM
IC50 [15]: 1160 nM

CNC(=O)c1nc2ccc(C(=O)c3cccc(NC(=O)Nc4ccc(Cl)c(C(F)(F)F)c4)c3)cc2[nH]1
IC50 [16]: 57.8 nM
IC50 (HUVEC): 12500 nM
Activity (A-375 [17]): 17.99%
IC50 (A-375 [18]): 3620 nM

CCCCN1CCN(Oc2cc3nccc(Oc4ccc(NS(=O)(=O)c5cc(F)ccc5F)cc4F)c3cc2OC)CC1
IC50 [13]: 100 nM
IC50 [15]: 91 nM

CC(=O)Nc1cc(-c2sc(C3CCN(C4CC4)CC3)nc2-c2cccc(NS(=O)(=O)c3cc(F)ccc3F)c2F)ccn1
IC50 (RKO): 2280 nM
IC50 (WM-115): 148 nM
IC50 (SW1417): 208 nM
IC50 (A-375 [19]): 3 nM
IC50 (COLO 205 [20]): 5 nM

Cc1nn(-c2ccccc2)c(Cl)c1Nc1ccc(C(F)(F)F)cc1
IC50 [15]: 66 nM
IC50 (A-375 [21]): 810 nM

CCC[S+]([O-])Nc1ccc(F)c(Cc2c[nH]c3nc(N)n(C)c(=O)c23)c1F (stereo not drawn)
IC50 (COLO 205 [22]): 1640 nM
IC50 [23]: 50 nM
IC50 (A-375 [24]): 800 nM
IC50 [25]: 440 nM
IC50 (HT-29 [26]): 550 nM

Cc1ccc(NC(=S)NNC(=O)CNc2nc(-c3ccccc3)c(-c3ccccc3)s2)cc1
IC50 [27]: 1300 nM

CNC(=O)c1cc(Cn2ccc3cc(NC(=O)Nc4ccc(Cl)c(C(F)(F)F)c4)ccc32)ccn1
IC50 (HepG2): 6630 nM
IC50 (SW480): 13500 nM
IC50 [15]: 510 nM
IC50 (MDA-MB-453): 21900 nM

COC[C@@H]1C[C@H]2[C@@H]3CCc4cc(O)ccc4[C@H]3CC[C@]2(C)C1NN (stereo partly drawn)
IC50 [13]: 4320 nM
Activity (SK-OV-3 [28]): 93.61%
IC50 [15]: 41 nM
IC50 (SK-OV-3 [29]): 4230 nM

Cc1cnc2[nH]cc(C(=O)c3c(F)ccc(N[S+]([O-])C(C)C)c3F)c2c1 (stereo not drawn)
IC50 [30]: 200 nM
IC50 [31]: 54 nM
